Patent publication US20180186807A1, “COMPOUNDS AND USES THEREOF FOR THE MODULATION OF HEMOGLOBIN” (Global Blood Therapeutics, Inc., priority 2013, published 2018)

melting point: 272 to 275 °C
Compound: O=Cc1c(O)cccc1OCC(=O)N(C1CCOCC1)C1CCOCC1 [GBT001203, 2-(2-formyl-3-hydroxyphenoxy)-N,N-bis(tetrahydro-2H-pyran-4-yl)acetamide]
